Data taken from article PMC11301932 (Fluids and Barriers of the CNS, 2024).
Read-outs that look alike come from different tables or passages of the source. One block for each molecule: values may come before it.

Tests used:
[1] = target: T1, Abcg2 (Mus musculus, UniProt Q7TMS5); assay: Inhibition of efflux of substrate drugs from the brain of Abcb1a/b KO mice; assay type: in vivo
T1 sequence (Q7TMS5 1-657): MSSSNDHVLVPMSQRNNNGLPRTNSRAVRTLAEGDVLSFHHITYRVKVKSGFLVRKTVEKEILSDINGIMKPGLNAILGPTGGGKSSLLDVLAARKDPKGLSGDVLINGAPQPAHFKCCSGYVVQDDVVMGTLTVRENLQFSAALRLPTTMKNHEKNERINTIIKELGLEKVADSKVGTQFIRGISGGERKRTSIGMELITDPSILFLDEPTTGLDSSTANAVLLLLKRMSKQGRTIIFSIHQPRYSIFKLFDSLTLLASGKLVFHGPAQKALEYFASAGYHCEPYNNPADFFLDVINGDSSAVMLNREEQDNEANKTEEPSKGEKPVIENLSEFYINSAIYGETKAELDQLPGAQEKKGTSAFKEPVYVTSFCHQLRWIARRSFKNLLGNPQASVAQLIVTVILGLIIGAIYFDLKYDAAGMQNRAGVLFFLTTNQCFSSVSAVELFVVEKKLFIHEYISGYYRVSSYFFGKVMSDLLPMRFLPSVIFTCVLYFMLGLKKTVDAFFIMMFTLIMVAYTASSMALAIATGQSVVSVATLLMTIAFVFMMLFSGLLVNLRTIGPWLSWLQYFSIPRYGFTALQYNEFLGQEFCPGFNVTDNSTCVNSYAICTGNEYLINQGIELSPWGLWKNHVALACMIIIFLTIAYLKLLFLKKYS

[2] = system: Abcb1a/b and Abcg2; assay: Inhibition of efflux of substrate drugs from the brain of WT mice; details: mouse, in vivo
[3] = standard procedure using buffer in the receiver compartment; ref [24], [33]; cited from earlier work
[4] = Plasma concentration at the end of the 3 h i.p. infusion; assay type: in vivo; details: male, FVB, mouse, ip
[5] = cited from earlier work
[6] = target: Abcb1a/b (Mus musculus, UniProt P21447); assay: Inhibition of efflux of substrate drugs from the brain of Abcg2 KO mice; assay type: in vivo
[7] = Rapid equilibrium dialysis; assay type: in vitro ADME
[8] = cited from earlier work; remark: listed apart in the source
[9] = system: ABCB1; details: humans, cited from earlier work
[10] = target: T2, human ABCG2/BCRP (Homo sapiens, UniProt Q9UNQ0); assay: Drug accumulation assay in MDCKII-BCRP cells with 8-drug mixture plus inhibitor; details: in vitro, MDCKII-BCRP vs MDCK-MDR1
T2 sequence (Q9UNQ0 1-655): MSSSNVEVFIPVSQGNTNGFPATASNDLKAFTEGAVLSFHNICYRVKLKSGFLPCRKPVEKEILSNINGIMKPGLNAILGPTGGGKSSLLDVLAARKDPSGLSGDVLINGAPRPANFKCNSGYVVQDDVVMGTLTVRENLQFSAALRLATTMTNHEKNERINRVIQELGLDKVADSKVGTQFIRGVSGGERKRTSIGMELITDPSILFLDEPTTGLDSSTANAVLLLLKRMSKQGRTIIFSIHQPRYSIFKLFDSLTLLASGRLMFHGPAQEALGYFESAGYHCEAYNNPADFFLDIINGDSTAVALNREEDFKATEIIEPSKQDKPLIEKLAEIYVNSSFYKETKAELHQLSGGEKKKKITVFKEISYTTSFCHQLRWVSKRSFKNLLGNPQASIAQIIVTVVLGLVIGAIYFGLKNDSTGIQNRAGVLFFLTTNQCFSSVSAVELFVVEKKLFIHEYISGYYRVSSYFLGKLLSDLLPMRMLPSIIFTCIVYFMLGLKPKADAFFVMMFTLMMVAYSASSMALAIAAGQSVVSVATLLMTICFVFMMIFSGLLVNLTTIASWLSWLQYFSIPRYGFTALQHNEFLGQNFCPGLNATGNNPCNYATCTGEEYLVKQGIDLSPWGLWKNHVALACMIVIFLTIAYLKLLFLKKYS

[11] = Brain penetration; details: WT mice, ABC transporter mediated efflux present, no inhibitor

Sequence of Abcb1a/b (P21447 whole entry): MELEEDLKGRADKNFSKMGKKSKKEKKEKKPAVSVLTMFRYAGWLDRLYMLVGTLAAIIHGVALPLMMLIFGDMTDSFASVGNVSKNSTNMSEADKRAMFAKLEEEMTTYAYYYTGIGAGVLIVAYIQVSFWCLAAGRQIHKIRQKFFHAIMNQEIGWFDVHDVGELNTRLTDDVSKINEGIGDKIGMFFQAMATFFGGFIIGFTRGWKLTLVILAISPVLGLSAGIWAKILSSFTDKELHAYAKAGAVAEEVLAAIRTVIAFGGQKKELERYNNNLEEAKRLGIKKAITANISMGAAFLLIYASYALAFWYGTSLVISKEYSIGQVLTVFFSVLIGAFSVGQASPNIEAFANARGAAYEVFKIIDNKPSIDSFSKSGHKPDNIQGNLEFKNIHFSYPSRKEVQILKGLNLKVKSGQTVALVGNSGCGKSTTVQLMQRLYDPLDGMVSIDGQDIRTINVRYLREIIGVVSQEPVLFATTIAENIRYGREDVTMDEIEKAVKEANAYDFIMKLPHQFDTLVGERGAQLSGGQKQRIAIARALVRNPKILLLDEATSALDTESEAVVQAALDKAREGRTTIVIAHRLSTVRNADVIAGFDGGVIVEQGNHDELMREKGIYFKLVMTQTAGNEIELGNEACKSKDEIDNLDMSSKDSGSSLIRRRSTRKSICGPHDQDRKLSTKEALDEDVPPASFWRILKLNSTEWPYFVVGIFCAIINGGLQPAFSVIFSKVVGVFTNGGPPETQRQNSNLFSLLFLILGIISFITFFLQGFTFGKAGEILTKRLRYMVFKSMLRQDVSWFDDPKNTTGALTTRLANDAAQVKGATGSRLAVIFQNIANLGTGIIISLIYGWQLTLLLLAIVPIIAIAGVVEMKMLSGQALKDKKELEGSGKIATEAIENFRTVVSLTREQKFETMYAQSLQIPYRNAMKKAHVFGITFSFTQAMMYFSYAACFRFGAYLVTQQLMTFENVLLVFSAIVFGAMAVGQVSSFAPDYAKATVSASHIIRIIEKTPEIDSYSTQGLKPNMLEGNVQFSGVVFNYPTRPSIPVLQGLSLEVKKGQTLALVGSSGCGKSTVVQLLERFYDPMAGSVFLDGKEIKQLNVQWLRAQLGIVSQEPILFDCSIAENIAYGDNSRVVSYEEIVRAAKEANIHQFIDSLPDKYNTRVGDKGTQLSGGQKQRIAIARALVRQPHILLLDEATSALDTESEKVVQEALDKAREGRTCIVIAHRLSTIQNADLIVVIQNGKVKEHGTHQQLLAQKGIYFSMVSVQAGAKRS

Elacridar plasma level for maximum inhibition of efflux ([1]; Abcb1a/b KO mice, palbociclib, dasatinib and erlotinib (Class II)): above 1200 nM
Plasma level at which inhibitor inhibits its own ABCG2-mediated efflux ([1]; brain efflux in mice): about 1200 nM
Compound: COc1cc2c(cc1OC)CN(CCc1ccc(NC(=O)c3cccc4c(=O)c5cccc(OC)c5[nH]c34)cc1)CC2 [Elacridar, 9,10-dihydro-5-methoxy-9-oxo-N-[4-[2-(1,2,3,4-tetrahydro-6,7-dimethoxy-2-isoquinolinyl)ethyl]phenyl]-4-acridine-carboxamide]
Proposed target plasma level to enhance brain entry [2]: 1200 nM and about 700 ng/ml
Free fraction [3]: below 0.01

concentration at 3 h [4]: 100 to 250 nM
Compound: C#Cc1cccc(Nc2ncnc3cc(OCCOC)c(OCCOC)cc23)c1 [Erlotinib]

Compound: CNC(=O)c1cc(Oc2ccc(NC(=O)Nc3ccc(Cl)c(C(F)(F)F)c3)cc2)ccn1 [Sorafenib]
Fold higher brain uptake in Abcg2;Abcb1a/b KO vs WT mice ([5]; LC-MS/MS on brain homogenates, ref [39]): 9.3 fold

Inhibitor plasma level for (near) complete inhibition of ABCB1 at the BBB [6]: at least 4000 nM
Plasma level above which own B/P ratio starts to increase [6]: above 4000 nM
Tariquidar plasma level required for near complete ABCB1 inhibition ([6]; for loperamide and afatinib): ≥ 6 µM
Tariquidar plasma level required for near complete ABCB1 inhibition ([6]; for verapamil and erlotinib): at least 4000 nM
Change of own B/P ratio with plasma concentration ([1]; Abcb1a/b KO and WT mice (Abcg2 proficient)): did not increase
concentration at 3 h ([4]; 10.5 mg/kg/h): > 6000 nM
Fraction retrieved in the receiver chamber ([7]; RED, undiluted human or mouse plasma to human plasma, after 24 h of incubation): 2–3%
Fold higher IC50 for ABCG2 than for ABCB1 [10]: about 10 fold
Compound: COc1cc2c(cc1OC)CN(CCc1ccc(NC(=O)c3cc(OC)c(OC)cc3NC(=O)c3cnc4ccccc4c3)cc1)CC2 [Tariquidar]
Enhancement of brain accumulation of ABCG2-substrate drugs ([1]; Abcb1a/b KO mice): none of the ABCG2-substrate drugs exhibit significant enhancement
Plasma protein binding, mouse versus human plasma ([7]; RED competition setup): very high but similar in mouse and human plasma
Plasma level at the end of the infusion ([8]; humans, tariquidar 4–8 mg/kg i.v., 1.5–2.5 h, ref [19], [35]): 3000 to 4000 nM
Oral bioavailability ([8]; oral dosing in humans, ref [20]): very low
Free fraction [3]: below 0.01
Fold increase of VT, brain of [11C]verapamil ([9]; tariquidar 4–8 mg/kg, infusion 1.5–2.5 h, ref [19], [35]): 3.5 fold
Fold increased brain radioactivity of [11C]verapamil ([9]; tariquidar 2 mg/kg, 30 min i.v. infusion, ref [41]): ≤ 2 fold

concentration at 3 h [4]: 100 to 250 nM
B/P ratio [11]: 0.02
Compound: CCCS(=O)(=O)Nc1ccc(F)c(C(=O)c2c[nH]c3ncc(-c4ccc(Cl)cc4)cc23)c1F [Vemurafenib]

concentration at 3 h [4]: 100 to 250 nM
Compound: COc1ccc(CCN(C)CCCC(C#N)(c2ccc(OC)c(OC)c2)C(C)C)cc1OC (stereo not shown) [Verapamil]

Compound: CNC(=O)c1cc(Oc2ccc(N[11C](=O)Nc3ccc(Cl)c(C(F)(F)F)c3)cc2)ccn1 [[^11C]sorafenib]
Fold higher brain uptake in Abcg2;Abcb1a/b KO vs WT mice ([5]; PET, ref [38]): 3 fold
